Test results as given in patent US20120258975A1, “Potent Small Molecule Inhibitors of Autophagy, and Methods of Use Thereof” (Shanghai Institute of Organic Chemistry, priority 2009, published 2012).
Entries after “also recorded” stand apart in the source; their conditions may differ.

Columns and labels:
PI3P (FYVE-RFP) = test: FYVE-RFP spots in H4-FYVE cells; format: cell-based; settings: 10 μM; for levels of FYVE-RFP spots: basal and rapamycin treated H4 cells
Procedure: H4-FYVE cells were treated with DMSO (0.1%), MBCQ (10 μM) or C43 (spautin) (10 μM) for indicated time. A, The images were analyzed by fluorescence microscopy and quantified by HCS after fixing in 4% paraformaldehyde and stained with 4,6-diamidino-2-phenylindole (DAPI, 3 μg/mL). Images of 1000 cells for each compound treatment were analyzed by ArrayScan HCS 4.0 Reader with a 20× objective (Cellomics, Pittsburgh, Pa.). B, H4-FYVE cells were treated with DMSO (0.1%), RAPA (0.2 μM) alone, MBCQ (10 μM) or C43 (spautin) (10 μM) with or without RAPA (0.2 uM) for 8 h. The cell lysates were collected for western blotting using anti-RFP and anti-tubulin as a loading control.
The levels of PtdIns3P (PI3P) are known to play a critical role in mediating autophagy (Levine, B., and Klionsky, D. J. (2004). Development by self-digestion: molecular mechanisms and biological functions of autophagy. Dev Cell 6, 463-477). To ask if MBCQ has an effect on PI3P, H4 cells expressing FYVE-RFP were used. FYVE binds specifically to PI3P and is widely used as a marker for cellular levels for PI3P (Gaullier, J. M., Simonsen, A., D'Arrigo, A., Bremnes, B., Stenmark, H., and Aasland, R. (1998). FYVE fingers bind PtdIns(3)P. Nature 394, 432-433).

PtdIns3P = test: Lipid dot blot assay for cellular PtdIns3P; format: cell-based, mouse; settings: 10 μM, 3 h; basal and rapamycin treated cells
Procedure: FIG. 9 depicts results showing that MBCQ and C43 (spautin) selectively reduce the cellular levels of PtdIns3P. MEF cells were treated with DMSO (0.1%), RAPA (0.2 μM) alone, A, MBCQ (10 μM) or B, C43 (spautin) (10 μM) with or without RAPA (0.2 μM) for 3 h. The cellular PtdIns species were extracted and applied onto polyvinylidene fluoride membrane. The levels of PtdIns3P were detected using GST-PX domain protein and anti-GST antibody.
To further determine the effect of MBCQ on the cellular levels of PtdIns3P, a lipid dot blot assay was used. The cellular PtdIns species were extracted and applied onto polyvinylidene fluoride membrane. The levels of PtdIns3P was detected using GST-PX domain protein and anti-GST antibody. […] Taken together, it was concluded that MBCQ reduces the levels of PtdIns3P.

bax/bak DKO MEF cells = test: Etoposide induced cell death of bax/bak DKO cells; format: cell-based, mouse; settings: MBCQ 10 μM; for cell death induced by etoposide: etoposide 8 μM, spautin 10 μM, 3-MA 10 mM, 8 h
Procedure: C, cells were collected for western blotting using anti-LC3 antibody. α-tubulin was used as a control. D-F, Bax/bak DKO cells were treated with spautin (10 μM) or indicated concentration, in the presence of or absent etoposide (8 μM) for 8 h or indicated time. […] F, Cells were collected for western blotting using anti-LC3 antibody. α-tubulin was used as a control.
Autophagy has been proposed to contribute to cell death in a number of apoptotic deficient cell types. For example, bax/bak double deficient mouse embryonic fibroblast cells (DKO mefs) are highly resistant to apoptosis (Wei, M. C., Zong, W. X., Cheng, E. H., Lindsten, T., Panoutsakopoulou, V., Ross, A. J., Roth, K. A., MacGregor, G. R., Thompson, C. B., and Korsmeyer, S. J. (2001). Proapoptotic BAX and BAK: a requisite gateway to mitochondrial dysfunction and death. Science 292, 727-730).

LC3II in liver = test: Autophagy in liver of rapamycin injected mice; format: in vivo; settings: rapamycin 10 mg/kg, 40 mg/kg intraperitoneally every hour for 4 h
Procedure: FIG. 13 depicts results showing the effect of MBCQ and derivatives in vivo. (A) Mice were injected with rapamycin (10 mg/kg) alone as a positive control, or with C43 or MBCQ (40 mg/kg) intraperitoneally every hour for 4 h and then sacrificed at 5 th h. The autophagy levels in liver were analyzed by western blotting using anti-LC3 antibody. (B) C43 reduces the levels of autophagy induced by cerulein. Rats were injected intraperitoneally with cerulein (50 μg/kg) alone or with C43 (40 mg/kg) hourly for 4 times. The rats were sacrificed at one h after the last injection and the pancreas were isolated for western blotting analysis using anti-LC3 and anti-tubulin (as a control).
To begin to test the effect of MBCQ derivatives in vivo, the ability of MBCQ derivatives to inhibit autophagy in rapamycin injected mice was investigated. Mice were injected with rapamycin (10 mg/kg) alone as a positive control, or with C43 or MBCQ (40 mg/kg) intraperitoneally every hour for 4 h and then sacrificed at the fifth hour. The autophagy levels in liver were then analyzed by western blotting using anti-LC3 antibody. […] Thus, it was determined that C43 and MBCQ are both active in vivo in inhibiting autophagy.

Row | SMILES | protein levels of FYVE-RFP by western blotting (PI3P (FYVE-RFP)) | levels of FYVE-RFP spots (PI3P (FYVE-RFP)) | cellular levels of PtdIns3P (PtdIns3P) | cell death induced by etoposide (bax/bak DKO MEF cells) | levels of LC3II in liver (LC3II in liver) | levels of LC3II in etoposide treated cells (bax/bak DKO MEF cells)
1 | Fc1ccc(CNc2ncnc3ccc(F)cc23)cc1 [C43, 6-fluoro-N-(4-fluorobenzyl)quinazolin-4-amine] | no effect on the protein levels of FYVE-RFP | reduce FYVE-RFP spots | selectively reduced the cellular levels of PtdIns3P | inhibits etoposide induced death | significantly reduced the levels of LC3II | –
2 | Clc1ccc2ncnc(NCc3ccc4c(c3)OCO4)c2c1 [MBCQ] | – | rapidly and effectively reduced the levels of FYVE-RFP spots | selectively reduced the cellular levels of PtdIns3P | significantly reduced cell death; also recorded: inhibits etoposide induced death | significantly reduced the levels of LC3II | reduced in the presence of MBCQ
